From patent US20170239289A1, “TREATMENT OF INFLAMMATION, RESPIRATORY TRACT INFECTIONS AND CYSTIC FIBROSIS” (Advanced Inhalation Therapies (AIT) Ltd., priority 2014, published 2017)
Where “and” joins values, the source holds several entries; their conditions need not be identical. Equal values may be shown once.

Experiments:
[1] = test system: methicillin-sensitive S. aureus (MSSA); experiment: Example 1: microbial density in sputum (CFU) during NO inhalation; format: in vivo, Staphylococcus aureus; settings: Patient 3 (CFSCH03)
Description: NO was administered via inhalation to nine clinically stable human subjects diagnosed with, or suffering from CF from two medical centers. Patients received three daily 30-minute treatments of 160 ppm NO with at least 3.5 hours between treatments, for 5 days per week over a two-weeks time period.
Preliminary efficacy measures included determination of microbial density in sputum and measurements of forced exhaled volume at 1 second (FEV1). Inflammation associated with C-reactive protein (CRP) levels was assessed as a secondary outcome measure. Other inflammation biomarkers, such as interleukins, were also monitored (data not shown).
Bacterial load was measured for exemplary, non-limiting selection of species that included, P. alcaligenes, methicillin-sensitive Staphylococcus aureus (MSSA), Achromobacter spp., A. fumigates, non-mucoid P. aeruginosa and mucoid P. aeruginosa.

[2] = test system: human subjects diagnosed with acute bronchiolitis; experiment: Example 3: randomized bronchiolitis study, infants 2-12 months; 160 ppm NO 30 min 5x daily up to 5 days plus O2 vs O2 alone; efficacy; format: in vivo
Excerpt: Eligible subjects were randomized (1:1) to receive intermittent NO and standard treatment with O2 (hereafter referred to as NO treatment) or standard treatment with O2 (hereafter referred to as standard treatment) alone for a treatment period of up to 5 days. During treatment, MetHb and O2 saturation levels were continuously monitored using a dedicated monitor.
In addition to standard supportive O2 treatment which was initiated prior to randomization, subjects in the NO group were given five 30 minute inhalations per day of 160 ppm NO, at intervals of 3 to 4 hours, until subject improvement led to a physician decision of fit to discharge, to a maximum of 25 inhalations over 5 consecutive days. Inhalations were administered via hospital face masks (Hospiltak, Unomedical Inc).
All subjects in the control group were managed with standard supportive O2 treatment in the same way as the active treatment group, but without actual NO administration.
Secondary Endpoints—Efficacy: • LOS in hours, measured as time from first inhalation treatment to “fit to discharge” • Time to reach 92% O2 saturation (in room air) measured as time from first inhalation treatment to first O2 saturation of 92% sustained to discharge • Time to clinical score of less than or equal to 5 measured as time from first inhalation treatment to clinical score of less than or equal to 5
The following analysis sets were defined for analysis of safety and efficacy: • Intent-to-treat (ITT): Defined as all randomized subjects who received at least one study treatment. This was the main set for analysis of efficacy and safety. • Per-Protocol (PP): Defined as all subjects in the ITT cohort who completed study treatment in compliance with the protocol (i.e., excludes all early termination subjects) and who had no major protocol violations. This was a secondary set for analysis of efficacy.
An additional set for analysis of efficacy was defined post-hoc: • Modified Intent-to-treat (mITT): Defined as all subjects in the ITT, excluding subjects who were prematurely discontinued from treatment and/or or discontinued from the study according to protocol guidelines.
Length of hospitalization stay (LOS) was calculated in hours from the first inhalation treatment to “fit to discharge” defined as physician decision to discharge.
Time to achieve O2 saturation of 92% (improvement) leading to discharge was calculated from first treatment to the first time of O2 saturation of at least 92% before discharge. Time was taken from the clinical score assessments where applicable and from subject daily chart in special circumstances.
Time to clinical score of less than or equal to 5 was calculated from first inhalation to the first time the subject reached a clinical score of less than or equal to 5.
Survival Analysis using a Kaplan-Meier survival function curve was applied for testing the statistical significance of the difference between the study groups in the following endpoints: • LOS, from first inhalation to fit to discharge • Time to achieve 92% Saturation leading to discharge • Time to achieve clinical score less than or equal to 5
The Cox model was applied for comparative analysis of Kaplan-Meier curves. The hazards ratio was estimated via the Cox's regression model.
Post-hoc subgroup analyses of subjects with a LOS less than or equal to 24 hours and greater than 24 hours were also conducted for the key post-hoc secondary endpoints. Additional exploratory analyses were also conducted on a subgroups with LOS greater than 36 hours and a subgroup of the 10 most severe subjects (i.e., longest LOS) from each treatment group. These post-hoc analyses were conducted for the following reasons: • Based on preclinical studies, the anti-viral/anti-microbial treatment effect of NO is expected to take at least 24 hours (i.e., 2.5 treatment hours). • Approximately ⅓ of subjects were discharged after less than 24 hours in hospital. […]

[3] = mITT, 10 most severe subjects from each group
[4] = mITT, LOS greater than 24 hours
[5] = mITT, LOS greater than 36 hours

SMILES: [N]=O [NO, nitric oxide]
- MSSA CFU counts [1]: elimination
- Hazard ratio, time to sustained 92% O2 saturation ([2]; ITT (N=42), NO vs standard treatment, 95% CI: 0.392, 1.361): 0.731
- Hazard ratio, time to clinical score less than or equal to 5 ([2]; ITT (N=43), NO vs standard treatment, 95% CI: 0.378, 1.404): 0.728
- Hazard ratio, LOS (Kaplan-Meier/Cox) ([2]; ITT (N=43), NO vs standard treatment, 95% CI: 0.435, 1.518): 0.812
- Time to first 92% O2 saturation sustained to discharge, Mean (SD) ([2]; ITT, All (N = 42)): 35.50 (33.73) hours and 35.50 hours
- Time to first 92% O2 saturation sustained to discharge, Median ([2]; ITT, All (N = 42)): 21.08 h
- LOS, hours Mean (SD) ([2]; ITT, All (N = 43)): 43.34 (32.95) hours and 43.34 hours
- LOS, hours Median ([2]; ITT, All (N = 43)): 40.03 h
- Time to Clinical Score ≦5, Mean (SD) ([2]; ITT, All (N = 43)): 32.83 (30.61) hours and 32.83 hours
- Time to Clinical Score ≦5, Median ([2]; ITT, All (N = 43)): 21.08 h
- LOS, hours Mean (SD) ([2]; ITT, LOS >24 hours (N = 27)): 53.27 h
- LOS, hours Median ([2]; ITT, LOS >24 hours (N = 27)): 41.92 h
- Time to Clinical Score ≦5, Mean (SD) ([2]; ITT, LOS >24 hours (N = 27)): 39.62 h
- Time to Clinical Score ≦5, Median ([2]; ITT, LOS >24 hours (N = 27)): 39.92 h
- Time to first 92% O2 saturation sustained to discharge, Mean (SD) ([2]; ITT, LOS >24 hours (N = 27)): 43.35 h
- Time to first 92% O2 saturation sustained to discharge, Median ([2]; ITT, LOS >24 hours (N = 27)): 41.17 h
- Hazard ratio, time to clinical score less than or equal to 5 ([2]; ITT, LOS greater than 24 hours, 95% CI: 0.161, 0.949): 0.391
- Hazard ratio, LOS (Kaplan-Meier/Cox) ([2]; ITT, LOS greater than 24 hours, 95% CI: 0.211, 1.091): 0.480
- Hazard ratio, time to sustained 92% O2 saturation ([2]; ITT, LOS greater than 24 hours, 95% CI: 0.232, 1.145): 0.515
- Time to first 92% O2 saturation sustained to discharge, Mean (SD) ([2]; ITT, LOS ≦24 hours (N = 15)): 15.86 h
- Time to first 92% O2 saturation sustained to discharge, Median ([2]; ITT, LOS ≦24 hours (N = 15)): 16.78 h
- LOS, hours Mean (SD) ([2]; ITT, LOS ≦24 hours (N = 16)): 18.52 h
- LOS, hours Median ([2]; ITT, LOS ≦24 hours (N = 16)): 18.50 h
- Time to Clinical Score ≦5, Mean (SD) ([2]; ITT, LOS ≦24 hours (N = 16)): 15.86 h
- Time to Clinical Score ≦5, Median ([2]; ITT, LOS ≦24 hours (N = 16)): 16.78 h
- Hazard ratio, time to sustained 92% O2 saturation ([2]; PP (N=38), 95% CI: 0.334, 1.302): 0.660
- Hazard ratio, time to clinical score less than or equal to 5 ([2]; PP (N=39), 95% CI: 0.332, 1.324): 0.663
- Hazard ratio, LOS (Kaplan-Meier/Cox) ([2]; PP (N=39), 95% CI: 0.444, 1.688): 0.866
- Time to first 92% O2 saturation sustained to discharge, Mean (SD) ([2]; PP, All (N = 38)): 30.17 (21.06) hours and 30.17 hours
- Time to first 92% O2 saturation sustained to discharge, Median ([2]; PP, All (N = 38)): 21.08 h
- LOS, hours Mean (SD) ([2]; PP, All (N = 39)): 38.79 (21.52) hours and 38.79 hours
- LOS, hours Median ([2]; PP, All (N = 39)): 40.03 h
- Time to Clinical Score ≦5, Mean (SD) ([2]; PP, All (N = 39)): 27.18 (13.17) hours and 27.18 hours
- Time to Clinical Score ≦5, Median ([2]; PP, All (N = 39)): 21.08 h
- LOS, hours Mean (SD) ([2]; PP, LOS >24 hours (N = 24)): 46.03 h
- LOS, hours Median ([2]; PP, LOS >24 hours (N = 24)): 41.83 h
- Time to Clinical Score ≦5, Mean (SD) ([2]; PP, LOS >24 hours (N = 24)): 31.41 h
- Time to Clinical Score ≦5, Median ([2]; PP, LOS >24 hours (N = 24)): 34.92 h
- Time to first 92% O2 saturation sustained to discharge, Mean (SD) ([2]; PP, LOS >24 hours (N = 24)): 35.47 h
- Time to first 92% O2 saturation sustained to discharge, Median ([2]; PP, LOS >24 hours (N = 24)): 38.98 h
- Hazard ratio, time to clinical score less than or equal to 5 ([2]; PP, LOS greater than 24 hours, 95% CI: 0.093, 0.799): 0.273
- Hazard ratio, time to sustained 92% O2 saturation ([2]; PP, LOS greater than 24 hours, 95% CI: 0.139, 0.921): 0.358
- Hazard ratio, LOS (Kaplan-Meier/Cox) ([2]; PP, LOS greater than 24 hours, 95% CI: 0.164, 1.062): 0.418
- Time to first 92% O2 saturation sustained to discharge, Mean (SD) ([2]; PP, LOS ≦24 hours (N = 14)): 15.32 h
- Time to first 92% O2 saturation sustained to discharge, Median ([2]; PP, LOS ≦24 hours (N = 14)): 16.75 h
- LOS, hours Mean (SD) ([2]; PP, LOS ≦24 hours (N = 15)): 18.50 h
- LOS, hours Median ([2]; PP, LOS ≦24 hours (N = 15)): 18.42 h
- Time to Clinical Score ≦5, Mean (SD) ([2]; PP, LOS ≦24 hours (N = 15)): 15.32 h
- Time to Clinical Score ≦5, Median ([2]; PP, LOS ≦24 hours (N = 15)): 16.75 h
- median time to clinical score less than or equal to 5 ([2]; mITT, 10 most severe subjects (based on LOS) from each group): 41.56 h
- median LOS [2, 3]: 42.14 h
- median time to 92% O2 saturation sustained to discharge [2, 3]: 41.59 h
- median time to clinical score less than or equal to 5 [2, 4]: 34.92 h
- median time to first 92% O2 saturation sustained to discharge [2, 4]: 38.98 h
- median LOS ([2]; mITT, LOS greater than 24 hours (N=25)): 41.83 h
- Hazard ratio, time to clinical score less than or equal to 5 ([2]; mITT, LOS greater than 24 hours, 95% CI: 0.081, 0.699): 0.238
- Hazard ratio, time to sustained 92% O2 saturation ([2]; mITT, LOS greater than 24 hours, 95% CI: 0.119, 0.797): 0.308
- Hazard ratio, LOS (Kaplan-Meier/Cox) ([2]; mITT, LOS greater than 24 hours, 95% CI: 0.140, 0.913): 0.357
- median LOS [2, 5]: 41.92 h
- median time to 92% O2 saturation sustained to discharge [2, 5]: 41.37 h
- median time to clinical score less than or equal to 5 [2, 5]: 41.37 h
